Counter-ions that a name gives are not always drawn.
target: T1, Human RET kinase cytoplasmic domain (Homo sapiens, UniProt P07949); assay: RET kinase enzymatic assay; type: biochemical; settings: not given
T1 construct: made in house
T1 sequence (P07949 658-1114): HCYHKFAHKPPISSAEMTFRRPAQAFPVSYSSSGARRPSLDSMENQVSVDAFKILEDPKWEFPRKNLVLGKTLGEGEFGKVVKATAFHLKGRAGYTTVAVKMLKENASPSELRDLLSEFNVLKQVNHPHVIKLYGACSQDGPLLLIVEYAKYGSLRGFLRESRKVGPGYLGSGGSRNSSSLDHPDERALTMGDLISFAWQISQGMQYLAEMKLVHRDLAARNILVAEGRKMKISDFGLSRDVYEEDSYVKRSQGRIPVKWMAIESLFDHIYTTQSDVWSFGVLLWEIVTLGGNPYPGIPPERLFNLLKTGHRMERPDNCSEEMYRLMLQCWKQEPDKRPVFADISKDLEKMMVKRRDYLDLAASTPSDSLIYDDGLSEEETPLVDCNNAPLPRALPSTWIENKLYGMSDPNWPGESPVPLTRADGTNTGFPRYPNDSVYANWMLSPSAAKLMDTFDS
Outline: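 GST-RET, 0.2 nM in 2× enzyme mix (HEPES, CHAPS, BSA, DTT), preincubated with inhibitor 30 min at 23 °C. Reaction for 1 h at 23 °C after adding 2× substrate mix: 20 μM ATP, 20 mM MgCl2, 1 μM biotinylated peptide. Single wells per concentration; IC50 from sigmoidal dose-response fit.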

Structure (SMILES)	IC50
COCCOc1cc(-c2ncc(NC(=O)Nc3cc(C(F)(F)F)c(CN4CCN(C)CC4)cc3F)c(C)n2)c[nH]c1=O [Example 184, 1-(2-Fluoro-4-((4-methylpiperazin-1-yl)methyl)-5-(trifluoromethyl)-phenyl)-3-(2-(5-(2-methoxyethoxy)-6-oxo-1,6-dihydropyridin-3-yl)-4-methylpyrimidin-5-yl)urea trihydrochloride]	< 100 nM
CCOc1cc(-c2ncc(NC(=O)Nc3ccc(CC(C)(C)N)c(C(F)(F)F)c3)c(C)n2)c[nH]c1=O [Example 185, 1-(4-(2-Amino-2-methylpropyl)-3-(trifluoromethyl)phenyl)-3-(2-(5-ethoxy-6-oxo-1,6-dihydropyridin-3-yl)-4-methylpyrimidin-5-yl)urea]	< 100 nM
CCOc1cc(=O)[nH]cc1-c1ncc(NC(=O)Nc2ccc(CC(C)(C)N)c(C(F)(F)F)c2)c(C)n1 [Example 186, 1-(4-(2-Amino-2-methylpropyl)-3-(trifluoromethyl)phenyl)-3-(2-(4-ethoxy-6-oxo-1,6-dihydropyridin-3-yl)-4-methylpyrimidin-5-yl)urea]	< 100 nM
COCCOc1cc(=O)[nH]cc1-c1ncc(NC(=O)Nc2cc(C(=O)NCCN(C)C)cc(C(F)(F)F)c2)c(C)n1 [Example 187, N-(2-(dimethylamino)ethyl)-3-(3-(2-(4-(2-methoxyethoxy)-6-oxo-1,6-dihydropyridin-3-yl)-4-methylpyrimidin-5-yl)ureido)-5-(trifluoromethyl)benzamide]	< 100 nM
CCOc1cc(-c2ncc(NC(=O)Nc3cc(C(F)(F)F)c(CN(C)C)cc3F)cn2)c[nH]c1=O [Example 188, 1-(4-((Dimethylamino)methyl)-2-fluoro-5-(trifluoromethyl)phenyl)-3-(2-(5-ethoxy-6-oxo-1,6-dihydropyridin-3-yl)pyrimidin-5-yl)urea dihydrochloride]	< 100 nM
CCOc1cc(-c2ncc(NC(=O)Nc3cc(C(=O)NCCN(C)C)cc(C(F)(F)F)c3)cn2)c[nH]c1=O [Example 189, N-(2-(Dimethylamino)ethyl)-3-(3-(2-(5-ethoxy-6-oxo-1,6-dihydropyridin-3-yl)-pyrimidin-5-yl)ureido)-5-(trifluoromethyl)benzamide]	< 100 nM
CCOc1cc(-c2ncc(NC(=O)Nc3cc(C(F)(F)F)c(CN(C)C)cc3F)c(C)n2)c[nH]c1=O [Example 190, 1-(4-((Dimethylamino)methyl)-2-fluoro-5-(trifluoromethyl)phenyl)-3-(2-(5-ethoxy-6-oxo-1,6-dihydropyridin-3-yl)-4-methylpyrimidin-5-yl)urea dihydrochloride]	< 100 nM
CCOc1cc(=O)[nH]cc1-c1ncc(NC(=O)Nc2cc(C(F)(F)F)c(CN3CCN(CC)CC3)cc2F)c(C)n1 [Example 191, 1-(2-(4-Ethoxy-6-oxo-1,6-dihydropyridin-3-yl)-4-methylpyrimidin-5-yl)-3-(4-((4-ethylpiperazin-1-yl)methyl)-2-fluoro-5-(trifluoromethyl)phenyl)urea trihydrochloride]	< 100 nM

tested on: not listed separately; assay: Physical stability of the crystalline form on exposure to humidity; type: physicochemical; settings: exposed to 75% RH for five days
Protocol: A suspension of 1-(2-(4-ethoxy-6-oxo-1,6-dihydropyridin-3-yl)-4-methylpyrimidin-5-yl)-3-(5-(1,1,1-trifluoro-2-methylpropan-2-yl)isoxazol-3-yl)urea (493.5 mg) in 12.5 mL of acetone was stirred overnight while cycling the temperature between 40° C. and 5° C. Seeds of Compound A free base anhydrate were added at 5° C. The solids were isolated by vacuum filtration and dried overnight in a vacuum oven at 40° C. to give the title compound as a crystalline solid.

Structure (SMILES)	physical stability
CCOc1cc(=O)[nH]cc1-c1ncc(NC(=O)Nc2cc(C(C)(C)C(F)(F)F)on2)c(C)n1 [Compound A free base anhydrate, 1-(2-(4-Ethoxy-6-oxo-1,6-dihydropyridin-3-yl)-4-methylpyrimidin-5-yl)-3-(5-(1,1,1-trifluoro-2-methylpropan-2-yl)isoxazol-3-yl)urea]	physically stable

Source: patent US10294236B2, “Compounds as rearranged during transfection (RET) inhibitors” (GLAXOSMITHKLINE INTELLECTUAL PROPERTY DEVELOPMENT LIMITED, priority 2014, dated 2019)
